Source: ChEMBL document CHEMBL5154736, “Stereochemically altered cephalosporins as potent inhibitors of New Delhi metallo-β-lactamases” (Eur J Med Chem, 2022)
Values after ≈ are worked out from the molar mass of the structure shown. Active and inactive are the calls of the source. The rule behind the calls is not given here.

Legend:
[1] = Inhibition of bacterial NDM-1 using CDC-1 as substrate incubated for 30 mins; parameters: species or system Bacteria
[2] = Inhibition of bacterial IMP-1 using CDC-1 as substrate incubated for 30 mins; parameters: species or system Bacteria
[3] = Inhibition of bacterial VIM-27 using CDC-1 as substrate incubated for 30 mins; parameters: species or system Bacteria
Escherichia coli [4] = assay: Antibacterial activity against Escherichia coli expressing NDM-1 measured by broth microdilution method; format: functional
[5] = Inhibition of bacterial NDM-3 using CDC-1 as substrate incubated for 30 mins; parameters: species or system Bacteria
[6] = Inhibition of bacterial NDM-4 using CDC-1 as substrate incubated for 30 mins; parameters: species or system Bacteria
[7] = Inhibition of bacterial NDM-12 using CDC-1 as substrate incubated for 30 mins; parameters: species or system Bacteria
[8] = Inhibition of bacterial NDM-13 using CDC-1 as substrate incubated for 30 mins; parameters: species or system Bacteria
[9] = Competitive inhibition of bacterial NDM-1 using CDC-1 as substrate and measured by Dixon plot analysis; parameters: species or system Bacteria
HEK293 [10] = assay: Cytotoxicity against human HEK293 cells at 1 to 100 uM and measured by MTT assay; format: toxicity, cell-based; details: hek293, 100 µM, dose 1-100 µM
HEK293 [11] = assay: Cytotoxicity against human HEK293 cells at 50 uM and measured by Calcien AM staining method; format: toxicity, cell-based; details: hek293, 50 µM
HEK293 [12] = assay: Cytotoxicity against human HEK293 cells at 50 uM and measured by propidium iodide (PI) staining method; format: toxicity, cell-based; details: hek293, 50 µM
Escherichia coli [13] = assay: Potentiation of meropenem-induced antibacterial activity against Escherichia coli expressing NDM-1 at 0.25 ug/ml assessed as meropenem MIC by broth microdilution method; format: functional; details: dose 0.25 µg/ml
Escherichia coli [14] = assay: Potentiation of meropenem-induced antibacterial activity against Escherichia coli expressing NDM-1 at 8 ug/ml assessed as meropenem MIC by broth microdilution method; format: functional; details: dose 8 µg/ml
Bacteria = assay: Reversible inhibition of bacterial NDM-1 at 10 uM incubated for 30 mins

Compound	IC50 [1]	IC50 [2]	IC50 [3]	other results
O=C(Cc1ccccc1)N[C@H]1C(=O)N2C(C(=O)O)=C(CSC(=O)c3ccccc3)CS[C@H]12	0.22 µM	–	–	–
CC(C)O[C@H]1C(=O)N2C(C(=O)O)=C(CSC(=O)c3ccccc3)CS[C@H]12	1.4 µM	–	–	–
O=C(O)C1=C(CSC(=O)c2ccccc2)CS[C@@H]2[C@@H](O)C(=O)N12	0.46 µM	–	–	–
CO[C@H]1C(=O)N2C(C(=O)O)=C(CSc3ncccn3)CS[C@H]12	0.63 µM	8.8 µM	8.6 µM	–
CO[C@H]1C(=O)N2C(C(=O)O)=C(CSc3nncs3)CS[C@H]12	1.6 µM	15 µM	8.1 µM	–
CO[C@@]1(NC(=O)Cc2ccccc2)C(=O)N2C(C(=O)O)=C(CSC(=O)c3ccccc3)CS[C@@H]21	9.6 µM	–	–	–
CO[C@H]1C(=O)N2C(C(=O)O)=C(CSC(=O)c3ccccc3)CS(=O)(=O)[C@H]12	> 50 µM	–	–	–
CO[C@H]1C(=O)N2C(C(=O)O)=C(CSc3nnc(C)s3)CS[C@H]12	0.55 µM	16 µM	13 µM	–
CO[C@H]1C(=O)N2C(C(=O)O)=C(CSc3ccccc3)CS[C@H]12	2 µM	7.4 µM	8.1 µM	–
CO[C@H]1C(=O)N2C(C(=O)O)=C(CSC(=O)c3ccccc3)C[S+]([O-])[C@H]12 (stereo not given in full)	0.25 µM	–	–	–
CO[C@H]1C(=O)N2C(C(=O)O)=C(COC(C)=O)CS[C@H]12	0.99 µM	–	–	–
C[C@@H](O)[C@H]1C(=O)N2C(C(=O)O)=C(S[C@@H]3CN[C@H](C(=O)N(C)C)C3)[C@H](C)[C@H]12 [MEROPENEM]	–	–	–	MIC (Escherichia coli [4]): 0.031 µg/mL (≈ 0.0808 µM)
CO[C@H]1C(=O)N2C(C(=O)O)=C(CSc3nnnn3C)CS[C@H]12	0.63 µM	20 µM	5.5 µM	–
O=C(Cc1ccccc1)N[C@@H]1C(=O)N2C(C(=O)O)=C(CSC(=O)c3ccccc3)CS[C@H]12	9.4 µM	–	–	–
CCOC(=O)CSCC1=C(C(=O)O)N2C(=O)[C@H](OC)[C@H]2SC1	0.62 µM	–	–	–
CO[C@H]1C(=O)N2C(C(=O)O)=C(CSC(=O)c3ccccc3)CS[C@H]12	> 50 µM	7.9 µM	9.1 µM	–
CCS[C@H]1C(=O)N2C(C(=O)O)=C(CSC(=O)c3ccccc3)CS[C@H]12	0.31 µM	0.8 µM	5.2 µM	–
CO[C@H]1C(=O)N2C(C(=O)O)=C(CSc3nc4ccc([N+](=O)[O-])cc4s3)CS[C@H]12	0.76 µM	15 µM	1 µM	–
CCSCC1=C(C(=O)O)N2C(=O)[C@H](OC)[C@H]2SC1	1.2 µM	–	–	–
CO[C@H]1C(=O)N2C(C(=O)O)=C(CSc3nc4ccccc4s3)CS[C@H]12	0.13 µM	8 µM	6 µM	IC50 [5]: 0.19 µM; IC50 [6]: 0.21 µM; IC50 [7]: 0.2 µM; IC50 [8]: 0.16 µM; Ki [9]: 0.21 µM; Activity (HEK293 [10]): Non-Toxic; Activity (HEK293 [11]): Non-Toxic; Activity (HEK293 [12]): Non-Toxic; MIC (Escherichia coli [13]): 32 µg/mL; MIC (Escherichia coli [14]): 16 µg/mL; inhibition (Bacteria): Active
O=C(O)C1=C(CSc2nc3ccccc3s2)CS[C@@H]2CC(=O)N12	> 50 µM	–	–	–
CO[C@H]1C(=O)N2C(C(=O)O)=C(CSc3ccc(C(F)(F)F)cc3)CS[C@H]12	0.5 µM	5.5 µM	7.3 µM	–
O=C(O)C1=C(CSC(=O)c2ccccc2)CS[C@@H]2CC(=O)N12	> 50 µM	–	–	–
CCO[C@H]1C(=O)N2C(C(=O)O)=C(CSC(=O)c3ccccc3)CS[C@H]12	7.4 µM	4.6 µM	3.6 µM	–
CO[C@H]1C(=O)N2C(C(=O)O)=C(CSc3ccc(NC(C)=O)cc3)CS[C@H]12	0.2 µM	8.4 µM	5.8 µM	–
O=C(O)CN(CCN(CC(=O)O)CC(=O)O)CC(=O)O [EDETIC ACID]	0.54 µM	–	–	–
CO[C@H]1C(=O)N2C(C(=O)O)=C(C[Se]c3ccccc3)CS[C@H]12	0.19 µM	6.6 µM	6 µM	–
CO[C@H]1C(=O)N2C(C(=O)O)=C(C)CS[C@H]12	> 50 µM	–	–	–
